In patent US20080009418A1, “Selective Inhibitors” (Alchemia LTD., priority 2004, published 2008):

Columns and labels:
Conditions in all cases: compound at 10 μM
[1] = molecular target: T1, Human neurokinin (NK1) (Homo sapiens, UniProt P25103); assay: Radioligand binding, human neurokinin NK1 membranes, filtration, [125I]-Substance P
T1 construct: purchased Perkin Elmer Biosignal
How it was run: (§1)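 Percent inhibition of radioligand binding measured on recombinant human membranes: NK1 with [125I]-Substance P, KOP with [3H]-Diprenorphine. Incubation 1 h at room temperature, then harvest onto 0.3% PEI-soaked filters, cold Tris-HCl pH 7.4 washes and scintillation counting; non-specific binding from reference ligand wells.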

[2] = molecular target: T2, Human κ-Opioid (KOP) (Homo sapiens, UniProt P41145); assay: Radioligand binding, human κ-opioid (KOP) membranes, filtration, [3H]-Diprenorphine
T2 construct: purchased Perkin Elmer Biosignal
How it was run: as §1

[3] = molecular target: T3, Human neuropeptide Y (NPY-Y1) (Homo sapiens, UniProt P25929); assay: Radioligand binding, human neuropeptide Y NPY-Y1 membranes, FlashPlate, [125I]-PYY
T3 construct: purchased Perkin Elmer Biosignal
T3 sequence (P25929 1-384): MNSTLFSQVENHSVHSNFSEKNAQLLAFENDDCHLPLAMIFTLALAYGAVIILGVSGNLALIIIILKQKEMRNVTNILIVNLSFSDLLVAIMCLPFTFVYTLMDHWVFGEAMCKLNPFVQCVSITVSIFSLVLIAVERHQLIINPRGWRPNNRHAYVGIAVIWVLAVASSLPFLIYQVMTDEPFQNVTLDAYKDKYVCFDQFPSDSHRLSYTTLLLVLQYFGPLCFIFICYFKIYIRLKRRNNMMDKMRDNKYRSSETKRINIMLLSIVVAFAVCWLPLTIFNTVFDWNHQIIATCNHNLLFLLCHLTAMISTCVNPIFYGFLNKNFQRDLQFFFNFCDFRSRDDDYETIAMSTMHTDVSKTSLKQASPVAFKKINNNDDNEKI
How it was run: (§2)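 Cloned human receptor membranes were coated onto FlashPlate wells and incubated with radioligand and compound (added from a 0.5 mM DMSO daughter plate) for 1 hour at room temperature in the dark. Scintillation counting gave percent inhibition, with DMSO defining total and reference ligand defining non-specific binding.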

[4] = molecular target: T4, Human δ-opioid (DOP) (Homo sapiens, UniProt P41143); assay: Radioligand binding, human δ-opioid (DOP) membranes, FlashPlate, [3H]-Bremazocine
T4 construct: purchased Perkin Elmer Biosignal
How it was run: as §2

[5] = molecular target: T5, Human melanin-concentrating hormone (MCH1) (Homo sapiens, UniProt Q99705); assay: Radioligand binding, human melanin-concentrating hormone MCH1 membranes, FlashPlate, [125I]-S36057
T5 construct: purchased Perkin Elmer Biosignal
How it was run: as §2

[6] = molecular target: T6, Human opioid (ORL1) (Homo sapiens, UniProt P41146); assay: Radioligand binding, human opioid ORL1 membranes, FlashPlate, [125I]-Nociceptin
T6 construct: purchased Perkin Elmer Biosignal
How it was run: as §2

[7] = molecular target: T7, Human Melanocortin (MC4) (Homo sapiens, UniProt P32245); assay: Radioligand binding, human melanocortin MC4 membranes, FlashPlate, [125I]-NDP-αMSH
T7 construct: purchased Perkin Elmer Biosignal
How it was run: as §2

[8] = molecular target: T8, Human melanocortin (MC5) (Homo sapiens, UniProt P33032); assay: Radioligand binding, human melanocortin MC5 membranes, FlashPlate, [125I]-NDP-αMSH
T8 construct: purchased Perkin Elmer Biosignal
How it was run: as §2

[9] = molecular target: T9, Mouse urotensin (mUR2) (Mus musculus, UniProt Q8VIH9); assay: Radioligand binding, mouse urotensin mUR2 membranes, FlashPlate, [125I]-Urotensin II
T9 construct: purchased Perkin Elmer Biosignal
T9 sequence (Q8VIH9 1-385): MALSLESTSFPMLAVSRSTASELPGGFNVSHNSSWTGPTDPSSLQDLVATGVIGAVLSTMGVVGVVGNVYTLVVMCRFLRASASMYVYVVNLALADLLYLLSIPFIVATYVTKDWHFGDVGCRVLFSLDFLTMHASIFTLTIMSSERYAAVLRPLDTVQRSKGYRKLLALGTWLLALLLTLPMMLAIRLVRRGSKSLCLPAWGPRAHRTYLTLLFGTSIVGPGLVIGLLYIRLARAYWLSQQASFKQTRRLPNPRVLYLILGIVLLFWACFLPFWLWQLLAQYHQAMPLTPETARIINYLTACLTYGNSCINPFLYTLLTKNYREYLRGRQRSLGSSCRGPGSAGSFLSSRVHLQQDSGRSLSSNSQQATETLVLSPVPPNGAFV
How it was run: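 Cloned mouse urotensin (mUR2) receptor membranes from Perkin Elmer Biosignal were immobilized in FlashPlate microplates using a proprietary coating. Each well got 19.5 μl buffer, then 0.5 μl of DMSO, reference ligand, or compound. Adding 5 μl of [125I]-Urotensin II, diluted to 5× final concentration in binding buffer, started binding. Plates were sealed with TopSeal-A and incubated 1 hour at room temperature in the dark. Wells were counted for 30 seconds each on a TopCount after a 60-second delay, and percentage inhibition was calculated.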

[10] = molecular target: T10, Human μ-opioid (MOP) (Homo sapiens, UniProt P35372); assay: Radioligand binding, human μ-opioid (MOP) membranes, FlashPlate, [3H]-Naloxone
T10 construct: purchased Perkin Elmer Biosignal
How it was run: as §2

[11] = molecular target: T11, Human Melanocortin (MC3) (Homo sapiens, UniProt P41968); assay: Radioligand binding, human melanocortin MC3 membranes, FlashPlate, [125I]-NDP-αMSH
T11 construct: purchased Perkin Elmer Biosignal
How it was run: as §2

T2 sequence (P41145 whole entry): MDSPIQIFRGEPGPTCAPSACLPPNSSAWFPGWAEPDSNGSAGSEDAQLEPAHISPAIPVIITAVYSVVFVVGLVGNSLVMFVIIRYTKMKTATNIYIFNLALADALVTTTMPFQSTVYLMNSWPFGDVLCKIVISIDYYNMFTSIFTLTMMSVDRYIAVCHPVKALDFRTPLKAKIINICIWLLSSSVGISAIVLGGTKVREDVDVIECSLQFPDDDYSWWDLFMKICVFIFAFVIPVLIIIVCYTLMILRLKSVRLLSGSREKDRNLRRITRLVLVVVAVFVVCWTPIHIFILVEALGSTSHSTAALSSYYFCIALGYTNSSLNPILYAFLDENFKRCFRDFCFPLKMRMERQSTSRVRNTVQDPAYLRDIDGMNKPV
T11 sequence (P41968 whole entry): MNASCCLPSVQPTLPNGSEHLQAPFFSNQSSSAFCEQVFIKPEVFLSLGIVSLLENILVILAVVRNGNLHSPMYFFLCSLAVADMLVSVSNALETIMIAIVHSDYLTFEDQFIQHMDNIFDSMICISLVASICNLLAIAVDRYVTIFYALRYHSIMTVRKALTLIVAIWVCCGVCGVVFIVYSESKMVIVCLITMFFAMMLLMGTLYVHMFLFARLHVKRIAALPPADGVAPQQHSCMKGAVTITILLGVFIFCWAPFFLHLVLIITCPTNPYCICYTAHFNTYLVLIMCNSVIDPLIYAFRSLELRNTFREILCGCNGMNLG
T7 sequence (P32245 whole entry): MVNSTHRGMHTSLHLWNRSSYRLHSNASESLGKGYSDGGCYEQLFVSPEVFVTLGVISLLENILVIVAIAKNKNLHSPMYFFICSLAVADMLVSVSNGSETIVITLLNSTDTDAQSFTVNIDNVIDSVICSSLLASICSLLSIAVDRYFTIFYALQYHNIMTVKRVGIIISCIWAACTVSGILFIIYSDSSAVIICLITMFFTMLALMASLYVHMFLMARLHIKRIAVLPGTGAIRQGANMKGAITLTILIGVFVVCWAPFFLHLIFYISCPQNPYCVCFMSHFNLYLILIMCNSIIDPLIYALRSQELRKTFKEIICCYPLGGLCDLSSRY
T4 sequence (P41143 whole entry): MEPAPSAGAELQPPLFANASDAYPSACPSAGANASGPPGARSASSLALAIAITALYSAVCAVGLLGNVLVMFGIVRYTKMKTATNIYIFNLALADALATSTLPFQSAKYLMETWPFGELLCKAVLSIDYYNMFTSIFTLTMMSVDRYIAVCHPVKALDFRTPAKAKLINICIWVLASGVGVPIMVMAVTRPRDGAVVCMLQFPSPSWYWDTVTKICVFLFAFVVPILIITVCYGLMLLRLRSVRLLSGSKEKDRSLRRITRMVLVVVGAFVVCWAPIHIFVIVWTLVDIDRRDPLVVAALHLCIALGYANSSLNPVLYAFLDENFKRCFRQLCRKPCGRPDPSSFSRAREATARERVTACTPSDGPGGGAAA
T1 sequence (P25103 whole entry): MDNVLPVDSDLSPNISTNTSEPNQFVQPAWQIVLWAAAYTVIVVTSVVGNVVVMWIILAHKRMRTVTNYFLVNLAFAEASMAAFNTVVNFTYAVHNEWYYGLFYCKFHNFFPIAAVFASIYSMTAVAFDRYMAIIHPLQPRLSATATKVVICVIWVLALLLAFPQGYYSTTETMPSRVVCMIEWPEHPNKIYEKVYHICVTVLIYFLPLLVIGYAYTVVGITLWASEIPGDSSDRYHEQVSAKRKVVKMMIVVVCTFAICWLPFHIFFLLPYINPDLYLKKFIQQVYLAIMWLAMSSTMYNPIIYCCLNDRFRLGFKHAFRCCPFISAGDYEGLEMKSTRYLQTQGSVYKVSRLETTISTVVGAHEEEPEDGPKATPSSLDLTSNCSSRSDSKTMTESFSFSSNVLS
T6 sequence (P41146 whole entry): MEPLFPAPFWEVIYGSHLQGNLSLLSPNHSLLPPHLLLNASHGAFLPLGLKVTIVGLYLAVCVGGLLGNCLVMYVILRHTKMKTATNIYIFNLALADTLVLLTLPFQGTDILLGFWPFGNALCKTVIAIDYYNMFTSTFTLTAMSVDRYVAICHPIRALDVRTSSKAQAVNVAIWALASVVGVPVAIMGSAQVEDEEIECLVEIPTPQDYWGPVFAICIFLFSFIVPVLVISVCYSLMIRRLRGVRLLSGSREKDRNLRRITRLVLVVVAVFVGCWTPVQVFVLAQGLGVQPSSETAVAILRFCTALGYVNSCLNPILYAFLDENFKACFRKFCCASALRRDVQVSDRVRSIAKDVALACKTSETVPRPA
T5 sequence (Q99705 whole entry): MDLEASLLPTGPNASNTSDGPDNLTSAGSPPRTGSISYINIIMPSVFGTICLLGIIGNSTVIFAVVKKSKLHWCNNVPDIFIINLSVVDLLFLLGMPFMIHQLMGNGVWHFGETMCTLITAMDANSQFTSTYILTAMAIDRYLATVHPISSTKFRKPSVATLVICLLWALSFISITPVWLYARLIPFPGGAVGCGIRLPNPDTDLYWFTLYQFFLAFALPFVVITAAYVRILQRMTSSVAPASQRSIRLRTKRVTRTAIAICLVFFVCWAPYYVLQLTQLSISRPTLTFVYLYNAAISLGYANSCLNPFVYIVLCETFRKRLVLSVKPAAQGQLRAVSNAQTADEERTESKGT
T8 sequence (P33032 whole entry): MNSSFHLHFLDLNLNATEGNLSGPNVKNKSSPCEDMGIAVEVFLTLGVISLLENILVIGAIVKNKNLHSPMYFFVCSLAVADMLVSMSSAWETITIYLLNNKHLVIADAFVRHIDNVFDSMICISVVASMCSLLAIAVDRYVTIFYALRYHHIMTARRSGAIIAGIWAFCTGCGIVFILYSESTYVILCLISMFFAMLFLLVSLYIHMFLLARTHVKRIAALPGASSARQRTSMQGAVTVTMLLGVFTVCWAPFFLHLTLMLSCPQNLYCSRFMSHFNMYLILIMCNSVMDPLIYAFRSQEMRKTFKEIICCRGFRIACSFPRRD
T10 sequence (P35372 whole entry): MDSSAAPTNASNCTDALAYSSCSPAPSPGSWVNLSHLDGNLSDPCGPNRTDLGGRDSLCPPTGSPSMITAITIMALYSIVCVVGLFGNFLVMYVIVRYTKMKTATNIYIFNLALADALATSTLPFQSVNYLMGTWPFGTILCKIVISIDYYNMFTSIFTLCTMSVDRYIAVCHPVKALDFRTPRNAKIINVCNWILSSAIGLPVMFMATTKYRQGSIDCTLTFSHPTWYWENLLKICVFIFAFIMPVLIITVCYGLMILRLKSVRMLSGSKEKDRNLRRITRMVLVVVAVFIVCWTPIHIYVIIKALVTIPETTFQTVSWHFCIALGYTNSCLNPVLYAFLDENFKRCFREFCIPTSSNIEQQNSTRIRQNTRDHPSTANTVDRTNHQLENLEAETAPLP

Compound: CSC1O[C@H](COCc2ccc(-c3ccccc3)cc2)[C@@H](O)[C@@H](OCc2ccc(Cl)cc2)[C@H]1NC(=O)CCNC(=N)N (stereo partly shown) [compound 277]
- A8: inhibition of radioligand binding ([1]; [125I]-Substance P, filtration): + (“+” indicates greater than 50% inhibition at 10 μM)
- A2: inhibition of radioligand binding ([2]; [3H]-Diprenorphine, filtration): − (“−” indicates less than 50% inhibition at 10 μM)
- A9: inhibition of radioligand binding ([3]; [125I]-PYY, FlashPlate): − (“−” indicates less than 50% inhibition at 10 μM)
- A1: inhibition of radioligand binding ([4]; [3H]-Bremazocine, FlashPlate): − (“−” indicates less than 50% inhibition at 10 μM)
- A6: inhibition of radioligand binding ([5]; [125I]-S36057, FlashPlate): − (“−” indicates less than 50% inhibition at 10 μM)
- A10: inhibition of radioligand binding ([6]; [125I]-Nociceptin, FlashPlate): − (“−” indicates less than 50% inhibition at 10 μM)
- A4: inhibition of radioligand binding ([7]; [125I]-NDP-αMSH, FlashPlate): − (“−” indicates less than 50% inhibition at 10 μM)
- A5: inhibition of radioligand binding ([8]; [125I]-NDP-αMSH, FlashPlate): − (“−” indicates less than 50% inhibition at 10 μM)
- A11: inhibition of radioligand binding ([9]; [125I]-Urotensin II, FlashPlate): − (“−” indicates less than 50% inhibition at 10 μM)
- A7: inhibition of radioligand binding ([10]; [3H]-Naloxone, FlashPlate): − (“−” indicates less than 50% inhibition at 10 μM)
- A3: inhibition of radioligand binding ([11]; [125I]-NDP-αMSH, FlashPlate): + (“+” indicates greater than 50% inhibition at 10 μM)

Compound: CO[C@H]1[C@H](O)[C@@H](COCc2ccc(-c3ccccc3)cc2)OC(OCc2ccc(-c3ccccc3)cc2)[C@@H]1NC(=O)CNC(=N)N (stereo partly shown) [compound 51]
- A8 radioligand binding inhibition ([1]; human neurokinin NK1 membranes): + (“+” indicates greater than 50% inhibition at 10 μM)
- A2 radioligand binding inhibition ([2]; human κ-opioid (KOP) membranes): − (“−” indicates less than 50% inhibition at 10 μM)
- A9 radioligand binding inhibition ([3]; human NPY-Y1 membranes): − (“−” indicates less than 50% inhibition at 10 μM)
- A1 radioligand binding inhibition ([4]; human δ-opioid (DOP) membranes): − (“−” indicates less than 50% inhibition at 10 μM)
- A6 radioligand binding inhibition ([5]; human MCH1 membranes): + (“+” indicates greater than 50% inhibition at 10 μM)
- A10 radioligand binding inhibition ([6]; human ORL1 membranes): + (“+” indicates greater than 50% inhibition at 10 μM)
- A4 radioligand binding inhibition ([7]; human melanocortin MC4 membranes): + (“+” indicates greater than 50% inhibition at 10 μM)
- A5 radioligand binding inhibition ([8]; human melanocortin MC5 membranes): + (“+” indicates greater than 50% inhibition at 10 μM)
- A11 radioligand binding inhibition ([9]; mouse urotensin mUR2 membranes): − (“−” indicates less than 50% inhibition at 10 μM)
- A7 radioligand binding inhibition ([10]; human μ-opioid (MOP) membranes): − (“−” indicates less than 50% inhibition at 10 μM)
- A3 radioligand binding inhibition ([11]; human melanocortin MC3 membranes): + (“+” indicates greater than 50% inhibition at 10 μM)

Compound: NCCCC(=O)NC1C(OCc2ccccc2)OC(COCc2ccc(Cl)cc2)C(O)C1OCc1ccc2ccccc2c1 (stereo not shown) [compound 377]
- A8: inhibition of radioligand binding, human neurokinin (NK1) ([1]; [125I]-Substance P): + (“+” indicates greater than 50% inhibition at 10 μM)
- A2: inhibition of radioligand binding, human κ-opioid (KOP) ([2]; [3H]-Diprenorphine): − (“−” indicates less than 50% inhibition at 10 μM)
- A9: inhibition of radioligand binding, human neuropeptide Y (NPY-Y1) ([3]; [125I]-PYY): − (“−” indicates less than 50% inhibition at 10 μM)
- A1: inhibition of radioligand binding, human δ-opioid (DOP) ([4]; [3H]-Bremazocine): − (“−” indicates less than 50% inhibition at 10 μM)
- A6: inhibition of radioligand binding, human melanin-concentrating hormone (MCH1) ([5]; [125I]-S36057): − (“−” indicates less than 50% inhibition at 10 μM)
- A10: inhibition of radioligand binding, human opioid (ORL1) ([6]; [125I]-Nociceptin): − (“−” indicates less than 50% inhibition at 10 μM)
- A4: inhibition of radioligand binding, human melanocortin (MC4) ([7]; [125I]-NDP-αMSH): + (“+” indicates greater than 50% inhibition at 10 μM)
- A5: inhibition of radioligand binding, human melanocortin (MC5) ([8]; [125I]-NDP-αMSH): + (“+” indicates greater than 50% inhibition at 10 μM)
- A11: inhibition of radioligand binding, mouse urotensin (mUR2) ([9]; [125I]-Urotensin II): − (“−” indicates less than 50% inhibition at 10 μM)
- A7: inhibition of radioligand binding, human μ-opioid (MOP) ([10]; [3H]-Naloxone): − (“−” indicates less than 50% inhibition at 10 μM)
- A3: inhibition of radioligand binding, human melanocortin (MC3) ([11]; [125I]-NDP-αMSH): + (“+” indicates greater than 50% inhibition at 10 μM)

Compound: CO[C@H]1[C@H](O)[C@@H](COCc2ccc(-c3ccccc3)cc2)OC(OCc2ccc(Cl)cc2)[C@@H]1NC(=O)CCCN (stereo partly shown) [compound 95]
- A8 radioligand binding, percentage inhibition ([1]; [125I]-Substance P): + (“+” indicates greater than 50% inhibition at 10 μM)
- A2 radioligand binding, percentage inhibition ([2]; [3H]-Diprenorphine): − (“−” indicates less than 50% inhibition at 10 μM)
- A9 radioligand binding, percentage inhibition ([3]; [125I]-PYY): − (“−” indicates less than 50% inhibition at 10 μM)
- A1 radioligand binding, percentage inhibition ([4]; [3H]-Bremazocine): − (“−” indicates less than 50% inhibition at 10 μM)
- A6 radioligand binding, percentage inhibition ([5]; [125I]-S36057): + (“+” indicates greater than 50% inhibition at 10 μM)
- A10 radioligand binding, percentage inhibition ([6]; [125I]-Nociceptin): + (“+” indicates greater than 50% inhibition at 10 μM)
- A4 radioligand binding, percentage inhibition ([7]; [125I]-NDP-αMSH): + (“+” indicates greater than 50% inhibition at 10 μM)
- A5 radioligand binding, percentage inhibition ([8]; [125I]-NDP-αMSH): + (“+” indicates greater than 50% inhibition at 10 μM)
- A11 radioligand binding, percentage inhibition ([9]; [125I]-Urotensin II): − (“−” indicates less than 50% inhibition at 10 μM)
- A7 radioligand binding, percentage inhibition ([10]; [3H]-Naloxone): − (“−” indicates less than 50% inhibition at 10 μM)
- A3 radioligand binding, percentage inhibition ([11]; [125I]-NDP-αMSH): − (“−” indicates less than 50% inhibition at 10 μM)

Compound: NCCCC(=O)NC1C(OCc2ccc3ccccc3c2)OC(COCc2ccc3ccccc3c2)C(O)C1OCc1ccccc1 (single isomer, unassigned) [compound 465]
- A8: inhibition of radioligand binding ([1]; [125I]-Substance P, human NK1 membranes): + (“+” indicates greater than 50% inhibition at 10 μM)
- A2: inhibition of radioligand binding ([2]; [3H]-Diprenorphine, human KOP membranes): − (“−” indicates less than 50% inhibition at 10 μM)
- A9: inhibition of radioligand binding ([3]; [125I]-PYY, human NPY-Y1 membranes): − (“−” indicates less than 50% inhibition at 10 μM)
- A1: inhibition of radioligand binding ([4]; [3H]-Bremazocine, human DOP membranes): − (“−” indicates less than 50% inhibition at 10 μM)
- A6: inhibition of radioligand binding ([5]; [125I]-S36057, human MCH1 membranes, 10 µM): − (“−” indicates less than 50% inhibition at 10 μM)
- A10: inhibition of radioligand binding ([6]; [125I]-Nociceptin, human ORL1 membranes, 10 µM): − (“−” indicates less than 50% inhibition at 10 μM)
- A4: inhibition of radioligand binding ([7]; [125I]-NDP-αMSH, human MC4 membranes, 10 µM): − (“−” indicates less than 50% inhibition at 10 μM)
- A5: inhibition of radioligand binding ([8]; [125I]-NDP-αMSH, human MC5 membranes): + (“+” indicates greater than 50% inhibition at 10 μM)
- A11: inhibition of radioligand binding ([9]; [125I]-Urotensin II, mouse mUR2 membranes): − (“−” indicates less than 50% inhibition at 10 μM)
- A7: inhibition of radioligand binding ([10]; [3H]-Naloxone, human MOP membranes): − (“−” indicates less than 50% inhibition at 10 μM)
- A3: inhibition of radioligand binding ([11]; [125I]-NDP-αMSH, human MC3 membranes, 10 µM): − (“−” indicates less than 50% inhibition at 10 μM)
